Assay results from patent US20120177701A1, “COMPOSITIONS COMPRISING IMMUNOSTIMULATORY NUCLEIC ACIDS AND RELATED METHODS” (priority 2010, published 2012).

Biological target: T1, human TLR9 (Homo sapiens, UniProt Q9NR96)
T1 construct: expressed in transfected cells; host or cells: HEK-Blue hTLR9 (HEK293-derived reporter line)
T1 sequence (Q9NR96 26-1032): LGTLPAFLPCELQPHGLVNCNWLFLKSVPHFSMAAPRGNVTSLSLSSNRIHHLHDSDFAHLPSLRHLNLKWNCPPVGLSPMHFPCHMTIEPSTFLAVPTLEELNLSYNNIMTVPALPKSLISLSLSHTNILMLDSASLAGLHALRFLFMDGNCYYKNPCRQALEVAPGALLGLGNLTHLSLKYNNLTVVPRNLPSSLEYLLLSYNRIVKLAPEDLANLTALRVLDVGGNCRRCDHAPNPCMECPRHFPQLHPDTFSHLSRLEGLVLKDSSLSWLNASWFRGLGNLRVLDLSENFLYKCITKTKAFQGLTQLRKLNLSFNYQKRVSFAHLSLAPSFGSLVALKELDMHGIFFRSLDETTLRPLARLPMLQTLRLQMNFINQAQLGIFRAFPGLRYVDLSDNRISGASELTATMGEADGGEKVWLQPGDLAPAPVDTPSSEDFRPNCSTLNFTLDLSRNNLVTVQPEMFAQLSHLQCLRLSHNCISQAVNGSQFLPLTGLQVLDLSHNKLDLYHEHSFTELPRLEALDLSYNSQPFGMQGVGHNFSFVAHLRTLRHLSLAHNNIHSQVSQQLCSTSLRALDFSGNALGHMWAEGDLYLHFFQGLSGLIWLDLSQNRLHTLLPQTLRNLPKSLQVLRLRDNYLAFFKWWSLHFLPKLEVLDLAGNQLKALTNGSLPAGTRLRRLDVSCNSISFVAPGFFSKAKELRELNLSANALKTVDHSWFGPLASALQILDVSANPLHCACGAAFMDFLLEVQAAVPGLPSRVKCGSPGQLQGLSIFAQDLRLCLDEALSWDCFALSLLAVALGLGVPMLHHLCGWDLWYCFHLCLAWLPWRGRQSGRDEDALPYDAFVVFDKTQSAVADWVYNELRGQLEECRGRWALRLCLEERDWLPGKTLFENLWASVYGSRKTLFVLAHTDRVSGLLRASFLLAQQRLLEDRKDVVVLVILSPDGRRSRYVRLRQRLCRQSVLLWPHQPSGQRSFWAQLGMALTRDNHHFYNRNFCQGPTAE
Format: cell-based

With “5′-GAGAUGUUAUUUUGUUUUUAAUAUUUC-3′ (phosphorothioate backbone, further chemistry not given here) [SL-0001, phosphorothioated 27-ribonucleotide from the 3′-terminus of Chikungunya virus strain TSI-GSD-218, bases 12010-12036]” the “activation of SEAP expression” value was “No activation of SEAP expression”.
